Experimental data taken from patent publication US9944602B2, “Piperidinone herbicides” (E. I. DU PONT DE NEMOURS AND COMPANY, priority 2014, dated 2018).

How the values were obtained:
Assay type in all cases: in vivo
[1] = system: barnyardgrass (Echinochloa crus-galli); test: Test A postemergence barnyardgrass; settings: 0 to 100 scale, 0 is no effect, 100 is complete control
Method in brief: (§1)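 Seeds sown in loam–sand blend received a directed preemergence soil spray; postemergence plants (2–10 cm, one- to two-leaf stage) were sprayed in the same soil. Chemicals were formulated in non-phytotoxic solvent with surfactant. After ~10 d in greenhouse, injury was rated visually against untreated controls, 0 (no effect) to 100 (complete control).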

kochia (Kochia scoparia) [2] = test: Test A preemergence kochia; settings: 0 to 100 scale, 0 no effect, 100 complete control
Method in brief: as §1

[3] = system: ryegrass, Italian (Italian ryegrass, Lolium multiflorum); test: Test A preemergence ryegrass, Italian; settings: 0 to 100 scale, 0 no effect, 100 complete control
Method in brief: as §1

[4] = system: ryegrass, Italian (Italian ryegrass, Lolium multiflorum); test: Test A postemergence ryegrass, Italian; settings: 0 to 100 scale, 0 is no effect, 100 is complete control
Method in brief: as §1

[5] = system: ducksalad (Heteranthera limosa); test: Test B flooded paddy test ducksalad; settings: Table B, Flood
Method in brief: (§2)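 Plants at 2-leaf stage in pots flooded 3 cm above soil; compounds applied directly into paddy water, depth kept throughout.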

[6] = system: pigweed (Amaranthus retroflexus); test: Test A postemergence pigweed; settings: 0 to 100 scale, 0 is no effect, 100 is complete control
Method in brief: as §1

[7] = system: wheat (Triticum aestivum); test: Test A postemergence wheat; settings: 0 to 100 scale, 0 is no effect, 100 is complete control
Method in brief: as §1

[8] = system: ragweed (common ragweed, Ambrosia elatior); test: Test A preemergence ragweed; settings: 0 to 100 scale, 0 no effect, 100 complete control
Method in brief: as §1

[9] = system: ragweed (common ragweed, Ambrosia elatior); test: Test A postemergence ragweed; settings: 0 to 100 scale, 0 is no effect, 100 is complete control
Method in brief: as §1

[10] = system: blackgrass (Alopecurus myosuroides); test: Test A postemergence blackgrass; settings: 0 to 100 scale, 0 is no effect, 100 is complete control
Method in brief: as §1

corn (Zea mays) = test: Test A postemergence corn; settings: 0 to 100 scale, 0 is no effect, 100 is complete control
Method in brief: as §1

[11] = system: barnyardgrass (Echinochloa crus-galli); test: Test B flooded paddy test barnyardgrass; settings: Table B, Flood
Method in brief: as §2

[12] = system: pigweed (Amaranthus retroflexus); test: Test A preemergence pigweed; settings: 0 to 100 scale, 0 no effect, 100 complete control
Method in brief: as §1

rice (Oryza sativa) = test: Test B flooded paddy test rice; settings: Table B, Flood
Method in brief: as §2

[13] = system: foxtail, giant (giant foxtail, Setaria faberii); test: Test A postemergence foxtail, giant; settings: 0 to 100 scale, 0 is no effect, 100 is complete control
Method in brief: as §1

[14] = system: barnyardgrass (Echinochloa crus-galli); test: Test A preemergence barnyardgrass; settings: 0 to 100 scale, 0 no effect, 100 complete control
Method in brief: as §1

[15] = system: foxtail, giant (giant foxtail, Setaria faberii); test: Test A preemergence foxtail, giant; settings: 0 to 100 scale, 0 no effect, 100 complete control
Method in brief: as §1

[16] = system: sedge, umbrella (small-flower umbrella sedge, Cyperus difformis); test: Test B flooded paddy test sedge, umbrella; settings: Table B, Flood
Method in brief: as §2

kochia (Kochia scoparia) [17] = test: Test A postemergence kochia; settings: 0 to 100 scale, 0 is no effect, 100 is complete control
Method in brief: as §1

[18] = system: galium (catchweed bedstraw, Galium aparine); test: Test A postemergence galium; settings: 0 to 100 scale, 0 is no effect, 100 is complete control
Method in brief: as §1

## O=C1NCCC(c2cccc(C(F)(F)F)c2)C1C(=O)Nc1ccccc1Cl (racemic) [Compound 17]
[1]; 125 g ai/ha
  Plant response rating, Barnyardgrass: 80
[1]; 500 g ai/ha
  Plant response rating, Barnyardgrass: 80
Kochia (Kochia scoparia) [2]; 125 g ai/ha
  Kochia plant response rating: 30
Kochia (Kochia scoparia) [2]; 500 g ai/ha
  Kochia plant response rating: 30
[3]; 125 g ai/ha
  Ryegrass, Italian plant response rating: 20
[3]; 500 g ai/ha
  Ryegrass, Italian plant response rating: 40
[4]; 125 g ai/ha
  Plant response rating, Ryegrass, Italian: 0
[4]; 500 g ai/ha
  Plant response rating, Ryegrass, Italian: 20
[5]; 500 g ai/ha, scale 0 to 100
  Plant response rating: 40
[6]; 125 g ai/ha
  Plant response rating, Pigweed: 0
[6]; 500 g ai/ha
  Plant response rating, Pigweed: 0
[7]; 125 g ai/ha
  Plant response rating, Wheat: 20
[7]; 500 g ai/ha
  Plant response rating, Wheat: 20
[8]; 125 g ai/ha
  Ragweed plant response rating: 0
[8]; 500 g ai/ha
  Ragweed plant response rating: 0
[9]; 125 g ai/ha
  Plant response rating, Ragweed: 0
[9]; 500 g ai/ha
  Plant response rating, Ragweed: 0
[10]; 125 g ai/ha
  Plant response rating, Blackgrass: 30
[10]; 500 g ai/ha
  Plant response rating, Blackgrass: 30
Corn (Zea mays); 125 g ai/ha
  Plant response rating, Corn: 0
Corn (Zea mays); 500 g ai/ha
  Plant response rating, Corn: 0
[11]; 500 g ai/ha, scale 0 to 100
  Plant response rating: 35
[12]; 125 g ai/ha
  Pigweed plant response rating: 0
[12]; 500 g ai/ha
  Pigweed plant response rating: 0
Rice (Oryza sativa); 500 g ai/ha, scale 0 to 100
  Plant response rating: 0
[13]; 125 g ai/ha
  Plant response rating, Foxtail, Giant: 80
[13]; 500 g ai/ha
  Plant response rating, Foxtail, Giant: 80
[14]; 125 g ai/ha
  Barnyardgrass plant response rating: 50
[14]; 500 g ai/ha
  Barnyardgrass plant response rating: 80
[15]; 125 g ai/ha
  Foxtail, Giant plant response rating: 80
[15]; 500 g ai/ha
  Foxtail, Giant plant response rating: 90
[16]; 500 g ai/ha, scale 0 to 100
  Plant response rating: 0
Kochia (Kochia scoparia) [17]; 125 g ai/ha
  Plant response rating, Kochia: 0
Kochia (Kochia scoparia) [17]; 500 g ai/ha
  Plant response rating, Kochia: 20
[18]; 125 g ai/ha
  Plant response rating, Galium: 20
[18]; 500 g ai/ha
  Plant response rating, Galium: 20

## O=C1NCCC(c2cccc(C(F)(F)F)c2)C1C(=O)Nc1ccc(F)c(F)c1F (stereo not drawn) [Compound 30, 2-oxo-4-[3-(trifluoromethyl)phenyl]-N-(2,3,4-trifluorophenyl)-3-piperidinecarboxamide]
[1]; Echinochloa crus-galli, post-emergence, 240 h, 125 g ai/ha, read-out: Plant response rating, Barnyardgrass
  pest or weed control at 125 g/ha: 80%
[1]; Echinochloa crus-galli, post-emergence, 240 h, 500 g ai/ha, read-out: Plant response rating, Barnyardgrass
  pest or weed control at 500 g/ha: 80%
Kochia (Kochia scoparia) [2]; Bassia scoparia, pre-emergence, 240 h, 125 g ai/ha, read-out: Kochia plant response rating
  pest or weed control at 125 g/ha: 0%
Kochia (Kochia scoparia) [2]; Bassia scoparia, pre-emergence, 240 h, 500 g ai/ha, read-out: Kochia plant response rating
  pest or weed control at 500 g/ha: 0%
[3]; Lolium multiflorum, pre-emergence, 240 h, 125 g ai/ha, read-out: Ryegrass, Italian plant response rating
  pest or weed control at 125 g/ha: 20%
[3]; Lolium multiflorum, pre-emergence, 240 h, 500 g ai/ha, read-out: Ryegrass, Italian plant response rating
  pest or weed control at 500 g/ha: 50%
[4]; Lolium multiflorum, post-emergence, 240 h, 125 g ai/ha, read-out: Plant response rating, Ryegrass, Italian
  pest or weed control at 125 g/ha: 0%
[4]; Lolium multiflorum, post-emergence, 240 h, 500 g ai/ha, read-out: Plant response rating, Ryegrass, Italian
  pest or weed control at 500 g/ha: 20%
[5]; Heteranthera limosa, 250 g ai/ha, scale 0 to 100, read-out: Plant response rating
  pest or weed control at 250 g/ha: 50%
[6]; Amaranthus retroflexus, post-emergence, 240 h, 125 g ai/ha, read-out: Plant response rating, Pigweed
  pest or weed control at 125 g/ha: 0%
[6]; Amaranthus retroflexus, post-emergence, 240 h, 500 g ai/ha, read-out: Plant response rating, Pigweed
  pest or weed control at 500 g/ha: 0%
[7]; Triticum aestivum, post-emergence, 240 h, 125 g ai/ha, read-out: Plant response rating, Wheat
  plant injury at 125 g/ha: 30%
[7]; Triticum aestivum, post-emergence, 240 h, 500 g ai/ha, read-out: Plant response rating, Wheat
  plant injury at 500 g/ha: 60%
[8]; Ambrosia artemisiifolia, pre-emergence, 240 h, 125 g ai/ha, read-out: Ragweed plant response rating
  pest or weed control at 125 g/ha: 0%
[8]; Ambrosia artemisiifolia, pre-emergence, 240 h, 500 g ai/ha, read-out: Ragweed plant response rating
  pest or weed control at 500 g/ha: 0%
[9]; Ambrosia artemisiifolia, post-emergence, 240 h, 125 g ai/ha, read-out: Plant response rating, Ragweed
  pest or weed control at 125 g/ha: 0%
[9]; Ambrosia artemisiifolia, post-emergence, 240 h, 500 g ai/ha, read-out: Plant response rating, Ragweed
  pest or weed control at 500 g/ha: 0%
[10]; Alopecurus myosuroides, post-emergence, 240 h, 125 g ai/ha, read-out: Plant response rating, Blackgrass
  pest or weed control at 125 g/ha: 70%
[10]; Alopecurus myosuroides, post-emergence, 240 h, 500 g ai/ha, read-out: Plant response rating, Blackgrass
  pest or weed control at 500 g/ha: 80%
Corn (Zea mays); Zea mays, post-emergence, 240 h, 125 g ai/ha
  Corn plant response rating (crop injury, 0 = no effect, 100 = complete kill) at 125 g/ha: 30%
Corn (Zea mays); Zea mays, post-emergence, 240 h, 500 g ai/ha
  Corn plant response rating (crop injury, 0 = no effect, 100 = complete kill) at 500 g/ha: 70%
[11]; Echinochloa crus-galli, 250 g ai/ha, scale 0 to 100, read-out: Plant response rating
  pest or weed control at 250 g/ha: 50%
[12]; Amaranthus retroflexus, pre-emergence, 240 h, 125 g ai/ha, read-out: Pigweed plant response rating
  pest or weed control at 125 g/ha: 0%
[12]; Amaranthus retroflexus, pre-emergence, 240 h, 500 g ai/ha, read-out: Pigweed plant response rating
  pest or weed control at 500 g/ha: 0%
Rice (Oryza sativa); Oryza sativa, 250 g ai/ha, scale 0 to 100, read-out: Plant response rating
  plant injury at 250 g/ha: 20%
[13]; Setaria faberi, post-emergence, 240 h, 125 g ai/ha, read-out: Plant response rating, Foxtail, Giant
  pest or weed control at 125 g/ha: 80%
[13]; Setaria faberi, post-emergence, 240 h, 500 g ai/ha, read-out: Plant response rating, Foxtail, Giant
  pest or weed control at 500 g/ha: 80%
[14]; Echinochloa crus-galli, pre-emergence, 240 h, 125 g ai/ha, read-out: Barnyardgrass plant response rating
  pest or weed control at 125 g/ha: 90%
[14]; Echinochloa crus-galli, pre-emergence, 240 h, 500 g ai/ha, read-out: Barnyardgrass plant response rating
  pest or weed control at 500 g/ha: 90%
[15]; Setaria faberi, pre-emergence, 240 h, 125 g ai/ha, read-out: Foxtail, Giant plant response rating
  pest or weed control at 125 g/ha: 90%
[15]; Setaria faberi, pre-emergence, 240 h, 500 g ai/ha, read-out: Foxtail, Giant plant response rating
  pest or weed control at 500 g/ha: 90%
[16]; Cyperus difformis, 250 g ai/ha, scale 0 to 100, read-out: Plant response rating
  pest or weed control at 250 g/ha: 0%
Kochia (Kochia scoparia) [17]; Bassia scoparia, post-emergence, 240 h, 125 g ai/ha, read-out: Plant response rating, Kochia
  pest or weed control at 125 g/ha: 0%
Kochia (Kochia scoparia) [17]; Bassia scoparia, post-emergence, 240 h, 500 g ai/ha, read-out: Plant response rating, Kochia
  pest or weed control at 500 g/ha: 0%
[18]; Galium, post-emergence, 240 h, 125 g ai/ha, read-out: Plant response rating, Galium
  pest or weed control at 125 g/ha: 0%
[18]; Galium, post-emergence, 240 h, 500 g ai/ha, read-out: Plant response rating, Galium
  pest or weed control at 500 g/ha: 0%
